Assay results taken from ChEMBL document CHEMBL5543068, “Mitochondrial targeting derivatives of honokiol enhanced selective antitumor activity in NCI-H446 cells and decreased in vivo toxicity in Caenorhabditis elegans” (Eur J Med Chem, 2024).
Calls of active or inactive are those of the source. The rule behind the calls is not given here.

Assays:
[1] = Cytotoxicity against HBE (human bronchial epithelial) cells assessed as reduction in cell viability incubated for 48 hrs by MTT assay; assay type: toxicity, cell-based
NCI-H446 [2] = experiment: Antiproliferative activity against human NCI-H446 cells assessed as reduction in cell viability incubated for 48 hrs by MTT assay; assay type: functional, cell-based; settings: for IC50: NCI-H446, 48 h
A549 = experiment: Antiproliferative activity against human A549 cells assessed as reduction in cell viability incubated for 48 hrs by MTT assay; assay type: functional, cell-based; settings: A549, 48 h
[3] = Cytotoxicity against human HL7702 cells assessed as reduction in cell viability incubated for 48 hrs by MTT assay; assay type: toxicity, cell-based; settings: HL7702 (L02) cells
HepG2 = experiment: Antiproliferative activity against human HepG2 cells assessed as reduction in cell viability incubated for 48 hrs by MTT assay; assay type: functional, cell-based; settings: HepG2, 48 h
NCI-H446 [4] = experiment: Induction of apoptosis in human NCI-H446 cells assessed as viable cells at 0.25 uM incubated for 24 hrs by Annexin V-FITC/PI staining based flow cytometric analysis (reference value: 96.8 %); assay type: functional; settings: read-out: Activity
NCI-H446 [5] = experiment: Induction of apoptosis in human NCI-H446 cells assessed as early apoptotic cells at 0.25 uM incubated for 24 hrs by Annexin V-FITC/PI staining based flow cytometric analysis (reference value: 0.37 %); assay type: functional
NCI-H446 [6] = experiment: Induction of apoptosis in human NCI-H446 cells assessed as late apoptotic cells at 0.25 uM incubated for 24 hrs by Annexin V-FITC/PI staining based flow cytometric analysis (reference value: 1.71 %); assay type: functional
NCI-H446 [7] = experiment: Induction of apoptosis in human NCI-H446 cells assessed as necrotic cells at 0.25 uM incubated for 24 hrs by Annexin V-FITC/PI staining based flow cytometric analysis (reference value: 1.17 %); assay type: functional
NCI-H446 [8] = experiment: Induction of apoptosis in human NCI-H446 cells assessed as viable cells at 0.5 uM incubated for 24 hrs by Annexin V-FITC/PI staining based flow cytometric analysis (reference value: 96.8 %); assay type: functional; settings: read-out: Activity
NCI-H446 [9] = experiment: Induction of apoptosis in human NCI-H446 cells assessed as early apoptotic cells at 0.5 uM incubated for 24 hrs by Annexin V-FITC/PI staining based flow cytometric analysis (reference value: 0.37 %); assay type: functional
NCI-H446 [10] = experiment: Induction of apoptosis in human NCI-H446 cells assessed as late apoptotic cells at 0.5 uM incubated for 24 hrs by Annexin V-FITC/PI staining based flow cytometric analysis (reference value: 1.71 %); assay type: functional
NCI-H446 [11] = experiment: Induction of apoptosis in human NCI-H446 cells assessed as necrotic cells at 0.5 uM incubated for 24 hrs by Annexin V-FITC/PI staining based flow cytometric analysis (reference value: 1.17 %); assay type: functional
NCI-H446 [12] = experiment: Induction of apoptosis in human NCI-H446 cells assessed as viable cells at 1 uM incubated for 24 hrs by Annexin V-FITC/PI staining based flow cytometric analysis (reference value: 96.8 %); assay type: functional; settings: read-out: Activity
NCI-H446 [13] = experiment: Induction of apoptosis in human NCI-H446 cells assessed as early apoptotic cells at 1 uM incubated for 24 hrs by Annexin V-FITC/PI staining based flow cytometric analysis (reference value: 0.37 %); assay type: functional
NCI-H446 [14] = experiment: Induction of apoptosis in human NCI-H446 cells assessed as late apoptotic cells at 1 uM incubated for 24 hrs by Annexin V-FITC/PI staining based flow cytometric analysis (reference value: 1.71 %); assay type: functional
NCI-H446 [15] = experiment: Induction of apoptosis in human NCI-H446 cells assessed as necrotic cells at 1 uM incubated for 24 hrs by Annexin V-FITC/PI staining based flow cytometric analysis (reference value: 1.17 %); assay type: functional
NCI-H446 [16] = experiment: Induction of apoptosis in human NCI-H446 cells assessed as viable cells at 2 uM incubated for 24 hrs by Annexin V-FITC/PI staining based flow cytometric analysis (reference value: 96.8 %); assay type: functional; settings: read-out: Activity
NCI-H446 [17] = experiment: Induction of apoptosis in human NCI-H446 cells assessed as early apoptotic cells at 2 uM incubated for 24 hrs by Annexin V-FITC/PI staining based flow cytometric analysis (reference value: 0.37 %); assay type: functional
NCI-H446 [18] = experiment: Induction of apoptosis in human NCI-H446 cells assessed as late apoptotic cells at 2 uM incubated for 24 hrs by Annexin V-FITC/PI staining based flow cytometric analysis (reference value: 1.71 %); assay type: functional
NCI-H446 [19] = experiment: Induction of apoptosis in human NCI-H446 cells assessed as necrotic cells at 2 uM incubated for 24 hrs by Annexin V-FITC/PI staining based flow cytometric analysis (reference value: 1.17 %); assay type: functional
NCI-H446 [20] = experiment: Induction of ROS production in human NCI-H446 cells assessed as increase in intracellular ROS level at 2 uM incubated for 24 hrs by DCFH-DA staining based flow cytometric analysis; assay type: functional, cell-based
Cell membrane [21] = experiment: Induction of mitochondrial membrane potential loss in human NCI-H446 cells at 0.25 uM incubated for 24 hrs by JC-1 staining based flow cytometric analysis; assay type: cell membranes
[22] = Toxicity in Caenorhabditis elegans assessed as reduction in growth by measuring body length at 20 to 100 uM measured after 72 hrs by […] microscopic analysis; settings: dose 20-100 µM
[23] = Toxicity in Caenorhabditis elegans assessed as reduction in movement speed at 100 uM measured after 72 hrs by […] microscopic analysis
[24] = Selectivity index, ratio of IC50 for cytotoxicity against HBE (human bronchial epithelial) cells to IC50 for antiproliferative activity against human NCI-H446 cells; assay type: toxicity, cell-based; settings: HBE (human bronchial epithelial) cells versus NCI-H446 cells, read-out: Ratio IC50
NCI-H446 [25] = experiment: Antiproliferative activity against human NCI-H446 cells assessed as reduction in cell viability incubated for 24 to 72 hrs by MTT assay; assay type: functional, cell-based; settings: dose 0.5-8 µM, time 24-72 hrs
NCI-H446 [26] = experiment: Antiproliferative activity against human NCI-H446 cells assessed as reduction in cell viability at 0.5 to 8 uM by MTT assay; assay type: functional, cell-based; settings: dose 0.5-8 µM, time 24-72 hrs, TDE = time-dependent effect
NCI-H446 [27] = experiment: Induction of apoptosis in human NCI-H446 cells assessed as change in cellular nuclei morphology at 1 uM incubated for 24 hrs by DAPI staining based fluorescence inverted microscopic analysis; assay type: functional, cell-based
[28] = Induction of apoptosis in HBE (human bronchial epithelial) cells assessed as change in nuclei morphology at 1 to 2 uM incubated for 24 hrs by DAPI staining based fluorescence inverted microscopic analysis; assay type: toxicity, cell-based; settings: dose 1-2 µM
NCI-H446 [29] = experiment: Induction of apoptosis in human NCI-H446 cells assessed as decrease in PARP level at 0.5 to 2 uM by Western blot analysis; assay type: functional, cell-based; settings: dose 0.5-2 µM
NCI-H446 [30] = experiment: Induction of apoptosis in human NCI-H446 cells assessed as decrease in caspase-9 level at 0.5 to 2 uM by Western blot analysis; assay type: functional, cell-based; settings: dose 0.5-2 µM
NCI-H446 [31] = experiment: Induction of apoptosis in human NCI-H446 cells assessed as decrease in caspase-3 level at 0.5 to 2 uM by Western blot analysis; assay type: functional, cell-based; settings: dose 0.5-2 µM
NCI-H446 [32] = experiment: Induction of apoptosis in human NCI-H446 cells assessed as increase in cleaved caspase-9 level at 0.5 to 2 uM by Western blot analysis; assay type: functional, cell-based; settings: dose 0.5-2 µM
NCI-H446 [33] = experiment: Induction of apoptosis in human NCI-H446 cells assessed as increase in cleaved caspase-3 level at 0.5 to 2 uM by Western blot analysis; assay type: functional, cell-based; settings: dose 0.5-2 µM
[34] = Drug uptake in human NCI-H446 cells assessed as green fluorescence at 2.5 uM incubated for 5 hrs by confocal microscopic analysis; assay type: ADME, cell-based; settings: nci-h446, 5 h
[35] = Drug localization in human NCI-H446 cell mitochondria at 2.5 uM incubated for 5 hrs by MitoTracker Red CMXRos dye based confocal microscopic analysis; assay type: ADME; settings: nci-h446, 5 h
NCI-H446 [36] = experiment: Induction of ROS production in human NCI-H446 cells assessed as increase in intracellular ROS level incubated for 24 hrs by DCFH-DA staining based flow cytometric analysis; assay type: functional, cell-based; settings: dose 0.25-2 µM
Cell membrane [37] = experiment: Induction of mitochondrial membrane potential loss in human NCI-H446 cells incubated for 24 hrs by JC-1 staining based flow cytometric analysis; assay type: cell membranes; settings: dose 0.25-2 µM
NCI-H446 [38] = experiment: Cell cycle arrest in human NCI-H446 cells assessed as G0/G1 phase cells incubated for 24 hrs by PI staining based flow cytometric analysis (reference value: 52.37%); assay type: functional
NCI-H446 [39] = experiment: Cell cycle arrest in human NCI-H446 cells assessed as increase in subG1 phase cells at 0.25 to 2 uM incubated for 24 hrs by PI staining based flow cytometric analysis; assay type: functional; settings: dose 0.25-2 µM
NCI-H446 [40] = experiment: Cell cycle arrest in human NCI-H446 cells assessed as decrease in S phase cells at 0.25 to 2 uM incubated for 24 hrs by PI staining based flow cytometric analysis; assay type: functional; settings: dose 0.25-2 µM
NCI-H446 [41] = experiment: Synergistic antiproliferative activity against human NCI-H446 cells assessed as reduction in cell viability incubated for 48 hrs in presence of cisplatin by MTT assay; assay type: functional, cell-based; settings: dose 0.5-8 µM
CDDP-resistant A549 cell [42] = experiment: Antiproliferative activity against human CDDP-resistant A549 cells assessed as reduction in cell viability at 0.5 to 16 uM incubated for 48 hrs by MTT assay; assay type: functional, cell-based; settings: dose 0.5-16 µM
CDDP-resistant A549 cell [43] = experiment: Sensitization of cisplatin-induced antiproliferative activity against human CDDP-resistant A549 cells assessed as inhibition of cell growth at 0.25 uM incubated for 48 hrs by MTT assay; assay type: functional, cell-based
[44] = Toxicity in Caenorhabditis elegans assessed as reduction in growth by measuring body length at 50 to 100 uM measured after 72 hrs by […] microscopic analysis; settings: dose 50-100 µM
[45] = Toxicity in Caenorhabditis elegans assessed as reduction in movement speed at 20 to 100 uM measured after 72 hrs by […] microscopic analysis; settings: dose 20-100 µM

SMILES: C=CCc1ccc(O)c(-c2ccc(O)c(CC=C)c2)c1 [HONOKIOL]
- IC50 at 48 h [1]: 43.7 µM
- IC50 (NCI-H446 [2]): 44.5 µM
- IC50 (A549): 48.1 µM
- IC50 at 48 h [3]: 47.9 µM
- IC50 (HepG2): 41.4 µM
- viability at 0.25 µM (NCI-H446 [4]): 95.4%
- Activity (NCI-H446 [5]): 0.38%
- Activity (NCI-H446 [6]): 2.04%
- Activity (NCI-H446 [7]): 2.17%
- viability at 0.5 µM (NCI-H446 [8]): 96%
- Activity (NCI-H446 [9]): 0.47%
- Activity (NCI-H446 [10]): 1.98%
- Activity (NCI-H446 [11]): 1.53%
- viability at 1 µM (NCI-H446 [12]): 73.3%
- Activity (NCI-H446 [13]): 1.1%
- Activity (NCI-H446 [14]): 12.8%
- Activity (NCI-H446 [15]): 12.8%
- viability at 2 µM (NCI-H446 [16]): 69.1%
- Activity (NCI-H446 [17]): 2.61%
- Activity (NCI-H446 [18]): 13%
- Activity (NCI-H446 [19]): 15.3%
- Activity (NCI-H446 [20]): inactive
- Activity (Cell membrane [21]): inactive
- Activity [22]: Toxic
- Activity [23]: Toxic

SMILES: C=CCc1ccc(OCCC)c(-c2ccc(OCCC[n+]3ccc(/C=C/c4c[nH]c5ccccc45)cc3)c(CC=C)c2)c1.[Br-]
- IC50 at 48 h [1]: 23.1 µM
- Activity (NCI-H446 [2]): Dose-Dependent Effect
- IC50 (NCI-H446 [2]): 2.87 µM
- IC50 (A549): 4.6 µM
- IC50 at 48 h [3]: 2.62 µM
- IC50 (HepG2): 2.48 µM
- selectivity ratio [24]: ~10
- Activity (NCI-H446 [25]): Dose-Dependent Effect
- Activity (NCI-H446 [26]): Tde
- Activity (NCI-H446 [27]): Active
- Activity [28]: Non-Toxic
- viability at 0.25 µM (NCI-H446 [4]): 2.58%
- Activity (NCI-H446 [5]): 39.9%
- Activity (NCI-H446 [6]): 57.4%
- Activity (NCI-H446 [7]): 0.14%
- viability at 0.5 µM (NCI-H446 [8]): 1.75%
- Activity (NCI-H446 [9]): 10.1%
- Activity (NCI-H446 [10]): 88.1%
- Activity (NCI-H446 [11]): 0.08%
- viability at 1 µM (NCI-H446 [12]): 1.32%
- Activity (NCI-H446 [13]): 2.12%
- Activity (NCI-H446 [14]): 95.4%
- Activity (NCI-H446 [15]): 0.13%
- viability at 2 µM (NCI-H446 [16]): 1.97%
- Activity (NCI-H446 [17]): 2.19%
- Activity (NCI-H446 [18]): 95.4%
- Activity (NCI-H446 [19]): 0.45%
- Activity (NCI-H446 [29]): Active
- Activity (NCI-H446 [30]): Active
- Activity (NCI-H446 [31]): Active
- Activity (NCI-H446 [32]): Active
- Activity (NCI-H446 [33]): Active
- Drug uptake [34]: Active
- Drug uptake [35]: Active
- Activity (NCI-H446 [36]): Dose-Dependent Effect
- Activity (Cell membrane [37]): Dose-Dependent Effect
- Activity (NCI-H446 [38]): 68.31%
- Activity (NCI-H446 [39]): Active
- Activity (NCI-H446 [40]): Active
- Activity (NCI-H446 [41]): Dose-Dependent Effect
- Activity (CDDP-resistant A549 cell [42]): inactive
- Activity (CDDP-resistant A549 cell [43]): Active
- Activity [44]: Non-Toxic
- Activity [45]: Non-Toxic
